The source of these data is patent publication US20230233736A1, “ANTIMICROBIAL FORMULATIONS COMPRISING SILICONE” (AMICOAT AS, priority 2020, published 2023).

≈ marks a conversion by molar mass, not a printed value. Where a SMILES comes first, the peptide text is derived from it. The star is where a group is joined. NHPhenethyl = c1ccc(CCN*)cc1

In one data set the test system is trypsin. Kind of data set: in vitro. It counts as in vitro ADME. The settings on record: pH 8.6. The protocol: Each peptide was dissolved in a 0.1 M NH4HCO3 buffer (pH 6.5) to yield a final peptide concentration of 1 mg/ml. A trypsin solution was prepared by dissolving 1 mg of trypsin in 50 ml 0.1 M NH4HCO3 buffer (pH 8.2). For the stability determination, 250 μl freshly made trypsin solution and 250 μl peptide solution were incubated in 2 ml of 0.1 M NH4HCO3 buffer (pH 8.6) at 37° C. on a rocking table. Aliquots of 0.5 ml were sampled at different time intervals, diluted with 0.5 ml water:acetonitrile (60:40 v/v) containing 1% TFA and analysed by RP-HPLC as described above. Samples without trypsin addition taken at 0 h and after 20 h at 37° C. were used as negative controls. Integration of the peak area at 254 nm for samples taken during the first 5 hours of the assay was used to generate the […].

A further data set relates to Candida tropicalis. Description: MIC microbroth dilution (CLSI). The settings on record: ATCC750 - reference strain. It counts as cell-based. A general note: Dilution methods test growth across graded concentrations, often in twofold steps.
The next data set relates to Aspergillus niger. Kind of data set: MIC microbroth dilution (CLSI). It counts as cell-based. To be noted: G.R. Micro collection.
Data set [1] deals with Trichophyton mentagrophytes. Kind of data set: MIC microbroth dilution (CLSI). To be noted: G.R. Micro collection. It counts as cell-based.
Data set [2] deals with Trichophyton interdigitale. Kind of data set: MIC microbroth dilution (CLSI). It counts as cell-based. To be noted: G.R. Micro collection.
A further data set relates to Microsporum canis. Kind of data set: MIC microbroth dilution (CLSI). Format: cell-based. To be noted: G.R. Micro collection.
Another data set has as its system Cryptococcus neoformans. Kind of data set: MIC microbroth dilution (CLSI). To be noted: G.R. Micro collection. It counts as cell-based.
Another data set concerns Enterococcus gallinarum. Kind of data set: MIC microbroth dilution (CLSI). The settings on record: vancomycin-resistant (VanC) clinical isolate. It counts as cell-based. An excerpt: (§1) Cation-adjusted Mueller-Hinton broth (Oxoid Ltd., Basingstoke, UK and Trek Diagnostic Systems Ltd., East Grinstead, UK) (supplemented with 5% laked horse blood for Streptococcus spp., Corynebacterium jeikeium and Listeria monocytogenes) was used for aerobic bacteria, with an initial inoculum of approximately 10^5 colony-forming units (CFU)/m L.

Another data set concerns Listeria monocytogenes. Kind of data set: MIC microbroth dilution (CLSI). It counts as cell-based. The settings on record: antibiotic-susceptible clinical isolate.
From the text: as §1

Another data set deals with Salmonella sp. Description: MIC microbroth dilution (CLSI). Format: cell-based.
From the text: as §1

For a further data set, the system named is Shigella sp. Description: MIC microbroth dilution (CLSI). The settings on record: antibiotic-susceptible clinical isolate. It counts as cell-based.
From the text: as §1

For data set [3], the system named is Staphylococcus saprophyticus. Description: MIC microbroth dilution (CLSI). Format: cell-based. The settings on record: antibiotic susceptible clinical isolate.
From the text: as §1

For data set [4], the system named is Stenotrophomonas maltophilia. Description: MIC microbroth dilution (CLSI). It counts as cell-based. To be noted: antibiotic-susceptible clinical isolate.
From the text: as §1

A further data set has as its system Acinetobacter baumanii. Kind of data set: MIC microbroth dilution (CLSI). It counts as cell-based. Further details: unit not given beside the values. The settings on record: antibiotic-susceptible clinical isolate.
From the text: as §1

In another data set the test system is Streptococcus pyogenes. Format: cell-based. The settings on record: Macrolide (M-type) resistance clinical isolate.
From the text: as §1

The subject of another data set is Clostridium difficile. Kind of data set: MIC microbroth dilution (CLSI). It counts as cell-based. Further details: unit not given beside the values. To be noted: antibiotic-susceptible clinical isolate.
The next data set concerns Bacteroides fragilis. Description: MIC microbroth dilution (CLSI). Further details: unit not given beside the values. The settings on record: ATCC 25285; SBB. Format: cell-based.
For the next data set, the system named is Eggerthella lenta. Description: MIC microbroth dilution (CLSI). It counts as cell-based. Further details: unit not given beside the values. To be noted: ATCC 43055; SBB.
In data set [5] the test system is Staphylococcus aureus, strain ATCC 25923. To be noted: for MIC: S. aureus ATCC 25923; for S. aureus: Table 5, strain ATCC 25923.
Data set [6] concerns Methicillin resistant Staphylococcus aureus (MRSA) strain ATCC 33591. To be noted: for MIC: MRSA ATCC 33591; for MRSA: Table 5, strain ATCC 33591.
Data set [7] relates to Methicillin resistant Staphylococcus epidermidis (MRSE) strain ATCC 27626. To be noted: for MIC: MRSE ATCC 27626; for MRSE: Table 5, strain ATCC 27626.
In the next data set the test system is C. albicans. Description: Antimicrobial assay, Table 5. Format: cell-based.
The next data set concerns S. pyogenes. Description: Antimicrobial assay, Table 5. Format: cell-based.
Another data set has as its system E. coli. Kind of data set: Antimicrobial assay, Table 5. Format: cell-based.
The test system of a further data set is P. aeruginosa. Description: Antimicrobial assay, Table 5. Format: cell-based.

Take `N=C(N)NCCC[C@H](NC(=O)C(Cc1ccc(-c2cccc3ccccc23)cc1)NC(=O)[C@@H](N)CCCNC(=N)N)C(=O)NCCc1ccccc1` (stereo partly shown) [Compound 3]: the half-life at 0.1 mg/ml in the data set on trypsin was 20 h.

On to `N=C(N)NCCCC(N)C(=O)NC(Cc1ccc(-c2ccc3ccccc3c2)cc1)C(=O)NC(CCCNC(=N)N)C(=O)NCCc1ccccc1` (stereo not shown) [Compound 1], for which the MIC in the data set with Candida tropicalis is reported as 2; in the data set on Aspergillus niger, 4; in data set [1], 16; in [2] it was 8; against Microsporum canis, 8; in the data set on Cryptococcus neoformans, 4. Besides, the MIC in the data set with Enterococcus gallinarum was 4; with Listeria monocytogenes it was 32; in the data set on Salmonella sp (antibiotic-susceptible clinical isolate), 16; with Salmonella sp (multi-drug resistant clinical isolate), 16; with Shigella sp, 32; in data set [3] it was 1. In addition, the MIC in data set [4] was 64; against Acinetobacter baumanii, 64; in the data set with Streptococcus pyogenes, 32; with Clostridium difficile, 32; against Bacteroides fragilis it was 64; in the data set with Eggerthella lenta, 16. Besides, the MIC is 4 µM (≈ 2.83 µg/mL) in data set [5], below 3 µM in [6] and below 3 µM in [7].

In the case of `CC(C)(C)c1cc(C(C)(C)C)c2[nH]c(C(C)(C)C)c(C[C@H](NC(=O)[C@@H](N)CCCCN)C(=O)N[C@@H](CCCCN)C(=O)NCCc3ccccc3)c2c1` [Compound 4], the half-life at 0.1 mg/ml with trypsin is above 24 h. In addition, the MIC in data set [6] is 3 µM (≈ 2.2 µg/mL); in data set [7], below 2 µM.

For `CCCCCCCCCCCCCCCCNC(=O)[C@H](CCCNC(=N)N)NC(=O)[C@H](Cc1c(C(C)(C)C)[nH]c2c(C(C)(C)C)cc(C(C)(C)C)cc12)NC(=O)[C@@H](N)CCCNC(=N)N` [Compound 11], in the data set with C. albicans, the C. albicans was above 100 mg/L. The compound also came in with a S. pyogenes with S. pyogenes of 6 mg/L. In the data set on E. coli, this compound came in with an E. coli above 100 mg/L. The P. aeruginosa in the data set with P. aeruginosa is above 100 mg/L. In [5], the S. aureus turned out to be 5 mg/L. This compound also gave an MRSA in [6] of 4 mg/L. The MRSE in data set [7] was found to be 4 mg/L.

In turn, `CC(C)(C)c1cc(C(C)(C)C)c2[nH]c(C(C)(C)C)c(C[C@H](NC(=O)[C@@H](N)CCCNC(=N)N)C(=O)N[C@@H](CCCNC(=N)N)C(=O)NC3CCCC3)c2c1` [Compound 14] had a C. albicans in the data set with C. albicans of 10 mg/L. Also, the S. pyogenes with S. pyogenes came to 2 mg/L. The S. aureus in data set [5] is reported as below 2 mg/L. The same compound gave an MRSA in [6] above 15 mg/L. The compound further returned an MRSE in data set [7] below 2 mg/L.

Consider `N=C(N)NCCC[C@H](NC(=O)C(Cc1ccc(-c2ccc(-c3ccccc3)cc2)cc1)NC(=O)[C@@H](N)CCCNC(=N)N)C(=O)NCCc1ccccc1` (stereo partly shown) [Compound 5], for which the half-life at 0.1 mg/ml in the data set with trypsin is above 24 h. Further, the MIC stood at 5 µM (≈ 3.66 µg/mL) in [5], 3 µM (≈ 2.2 µg/mL) in data set [6] and 3 µM (≈ 2.2 µg/mL) in [7].

Consider `N=C(N)NCCC[C@H](NC(=O)[C@H](Cc1c[nH]c2ccccc12)NC(=O)[C@@H](N)CCCNC(=N)N)C(=O)NCCc1ccccc1` [Compound 6, reference compound] (H-Arg-Trp-Arg-NHPhenethyl), for which the MIC amounted to 145 µM (≈ 89.9 µg/mL) in [5], 97 µM (≈ 60.1 µg/mL) in [6] and 81 µM (≈ 50.2 µg/mL) in data set [7].

For the compound `CCCCNC(=O)[C@H](CCCNC(=N)N)NC(=O)[C@H](Cc1c(C(C)(C)C)[nH]c2c(C(C)(C)C)cc(C(C)(C)C)cc12)NC(=O)[C@@H](N)CCCNC(=N)N` [Compound 9], the C. albicans in the data set on C. albicans is 10 mg/L. For the same compound, the S. pyogenes in the data set with S. pyogenes is recorded as 2 mg/L. Besides, the S. aureus in data set [5] is given as 2 mg/L. The MRSA in data set [6] came out at 3 mg/L. The compound also came in with an MRSE in data set [7] below 2 mg/L.

On to `CCCNC(=O)[C@H](CCCNC(=N)N)NC(=O)[C@H](Cc1c(C(C)(C)C)[nH]c2c(C(C)(C)C)cc(C(C)(C)C)cc12)NC(=O)[C@@H](N)CCCNC(=N)N` [Compound 10], for which the C. albicans in the data set on C. albicans was found to be 10 mg/L. In the data set with S. pyogenes, this compound showed a S. pyogenes of 2 mg/L. The compound also returned a S. aureus in data set [5] of 2 mg/L. Also, the MRSA in data set [6] worked out at 3 mg/L. Also, in data set [7], the MRSE is on record as below 2 mg/L.

`CC(C)CNC(=O)[C@H](CCCNC(=N)N)NC(=O)[C@H](Cc1c(C(C)(C)C)[nH]c2c(C(C)(C)C)cc(C(C)(C)C)cc12)NC(=O)[C@@H](N)CCCNC(=N)N` [Compound 12]: in the data set on C. albicans, the C. albicans was 10 mg/L. For the same compound, the S. pyogenes with S. pyogenes is given as 2 mg/L. In data set [5], this compound came in with a S. aureus below 2 mg/L. In [6], this compound came in with an MRSA of 3 mg/L. This compound also returned an MRSE in data set [7] of 2 mg/L.

Consider `CC(C)(C)c1cc(C(C)(C)C)c2[nH]c(C(C)(C)C)c(C[C@H](NC(=O)[C@@H](N)CCCNC(=N)N)C(=O)N[C@@H](CCCNC(=N)N)C(=O)NC3CCCCC3)c2c1` [Compound 13], for which, in the data set on C. albicans, the C. albicans is 10 mg/L. In addition, in the data set with S. pyogenes, the S. pyogenes is reported as below 2 mg/L. Moreover, in [5], the S. aureus is on record as below 2 mg/L. In [6], this compound registered an MRSA of 2 mg/L. The same compound gave an MRSE in data set [7] of 2 mg/L.

A word on the half-life: it is the time in which the quantity being followed falls by half.
